{
  "source": "paper PMC4122130",
  "about": "(Journal of neuroscience research, 2012)",
  "biological_target": "α7 nAChR (Homo sapiens, UniProt P36544)",
  "sequence (P36544 23-502)": "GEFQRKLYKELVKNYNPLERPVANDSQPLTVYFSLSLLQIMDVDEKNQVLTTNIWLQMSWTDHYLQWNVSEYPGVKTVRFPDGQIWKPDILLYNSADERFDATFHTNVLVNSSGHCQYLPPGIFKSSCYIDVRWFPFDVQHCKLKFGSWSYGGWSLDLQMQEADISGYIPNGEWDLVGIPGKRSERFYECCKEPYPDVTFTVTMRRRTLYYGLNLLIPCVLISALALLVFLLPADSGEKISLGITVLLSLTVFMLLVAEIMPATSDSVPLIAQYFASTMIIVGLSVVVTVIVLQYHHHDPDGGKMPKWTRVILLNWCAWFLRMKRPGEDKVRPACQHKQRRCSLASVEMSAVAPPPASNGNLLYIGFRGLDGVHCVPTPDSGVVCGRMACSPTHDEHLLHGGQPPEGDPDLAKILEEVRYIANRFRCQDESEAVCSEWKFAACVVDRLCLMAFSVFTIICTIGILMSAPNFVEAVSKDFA",
  "experiment": "whole-cell patch clamp, inhibition of […] ACh-evoked currents by […] 4R",
  "format": "cell-based",
  "conditions": "shsy5y cells",
  "data": [
    {"smiles": "C/C1=C\\[C@H](O)C[C@@](C)(O)/C=C/[C@H](C(C)C)CC/C(C)=C/CC1", "note": "[4R, (1S,2E,4R,6R,7E,11E)-cembra-2,7,11-triene-4,6-diol]", "values": [
      {"measurement": "% inhibition at 25 μM", "result": "82% ± 18% inhibition at 25 μM"}
    ]}
  ]
}
